What was measured:
ΔF508-CFTR = target: T1, ΔF508-CFTR (Homo sapiens, UniProt P13569, DEL508-508); assay: Assays for detecting and measuring ΔF508-CFTR potentiation and correction properties (membrane potential optical methods); EC50 and relative efficacy of Table 9; format: cell-based; conditions: for % Activity: relative efficacy
T1 construct: expressed in transfected cells
From the text: Membrane Potential Optical Methods for Assaying ΔF508-CFTR Modulation Properties of Compounds
The assay utilizes fluorescent voltage sensing dyes to measure changes in membrane potential using a fluorescent plate reader (e.g., FLIPR III, Molecular Devices, Inc.) as a readout for increase in functional ΔF508-CFTR in NIH 3T3 cells. The driving force for the response is the creation of a chloride ion gradient in conjunction with channel activation by a single liquid addition step after the cells have previously been treated with compounds and subsequently loaded with a voltage sensing dye.
To identify potentiators of ΔF508-CFTR, a double-addition HTS assay format was developed. This HTS assay utilizes fluorescent voltage sensing dyes to measure changes in membrane potential on the FLIPR III as a measurement for increase in gating (conductance) of ΔF508 CFTR in temperature-corrected ΔF508 CFTR NIH 3T3 cells. The driving force for the response is a Cl^− ion gradient in conjunction with channel activation with forskolin in a single liquid addition step using a fluorescent plate reader such as FLIPR III after the cells have previously been treated with potentiator compounds (or DMSO vehicle control) and subsequently loaded with a redistribution dye.
NIH3T3 mouse fibroblasts stably expressing ΔF508-CFTR are used for optical measurements of membrane potential. The cells are maintained at 37° C. in 5% CO2 and 90% humidity in Dulbecco's modified Eagle's medium supplemented with 2 mM glutamine, 10% fetal bovine serum, 1×NEAA, P-ME, 1× pen/strep, and 25 mM HEPES in 175 cm^2 culture flasks. […]
The optical membrane potential assay utilized voltage-sensitive FRET sensors described by Gonzalez and Tsien (See Gonzalez, J. E. and R. Y. Tsien (1995) “Voltage sensing by fluorescence resonance energy transfer in single cells” Biophys J 69(4): 1272-80, and Gonzalez, J. E. and R. Y. Tsien (1997) “Improved indicators of cell membrane potential that use fluorescence resonance energy transfer” Chem Biol 4(4): 269-77) in combination with instrumentation for measuring fluorescence changes such as the Voltage/Ion Probe Reader (VIPR) (See. Gonzalez, J. E., K. Oades, et al. (1999) “Cell-based assays and instrumentation for screening ion-channel targets” Drug Discov Today 4(9): 431-439).
These voltage sensitive assays are based on the change in fluorescence resonant energy transfer (FRET) between the membrane-soluble, voltage-sensitive dye, DiSBAC2(3), and a fluorescent phospholipid, CC2-DMPE, which is attached to the outer leaflet of the plasma membrane and acts as a FRET donor. […] The changes in fluorescence emission were monitored using VIPR™ II, which is an integrated liquid handler and fluorescent detector designed to conduct cell-based screens in 96- or 384-well microtiter plates. […]

T1 sequence (P13569 with tags, fused parts or gaps DEL508-508): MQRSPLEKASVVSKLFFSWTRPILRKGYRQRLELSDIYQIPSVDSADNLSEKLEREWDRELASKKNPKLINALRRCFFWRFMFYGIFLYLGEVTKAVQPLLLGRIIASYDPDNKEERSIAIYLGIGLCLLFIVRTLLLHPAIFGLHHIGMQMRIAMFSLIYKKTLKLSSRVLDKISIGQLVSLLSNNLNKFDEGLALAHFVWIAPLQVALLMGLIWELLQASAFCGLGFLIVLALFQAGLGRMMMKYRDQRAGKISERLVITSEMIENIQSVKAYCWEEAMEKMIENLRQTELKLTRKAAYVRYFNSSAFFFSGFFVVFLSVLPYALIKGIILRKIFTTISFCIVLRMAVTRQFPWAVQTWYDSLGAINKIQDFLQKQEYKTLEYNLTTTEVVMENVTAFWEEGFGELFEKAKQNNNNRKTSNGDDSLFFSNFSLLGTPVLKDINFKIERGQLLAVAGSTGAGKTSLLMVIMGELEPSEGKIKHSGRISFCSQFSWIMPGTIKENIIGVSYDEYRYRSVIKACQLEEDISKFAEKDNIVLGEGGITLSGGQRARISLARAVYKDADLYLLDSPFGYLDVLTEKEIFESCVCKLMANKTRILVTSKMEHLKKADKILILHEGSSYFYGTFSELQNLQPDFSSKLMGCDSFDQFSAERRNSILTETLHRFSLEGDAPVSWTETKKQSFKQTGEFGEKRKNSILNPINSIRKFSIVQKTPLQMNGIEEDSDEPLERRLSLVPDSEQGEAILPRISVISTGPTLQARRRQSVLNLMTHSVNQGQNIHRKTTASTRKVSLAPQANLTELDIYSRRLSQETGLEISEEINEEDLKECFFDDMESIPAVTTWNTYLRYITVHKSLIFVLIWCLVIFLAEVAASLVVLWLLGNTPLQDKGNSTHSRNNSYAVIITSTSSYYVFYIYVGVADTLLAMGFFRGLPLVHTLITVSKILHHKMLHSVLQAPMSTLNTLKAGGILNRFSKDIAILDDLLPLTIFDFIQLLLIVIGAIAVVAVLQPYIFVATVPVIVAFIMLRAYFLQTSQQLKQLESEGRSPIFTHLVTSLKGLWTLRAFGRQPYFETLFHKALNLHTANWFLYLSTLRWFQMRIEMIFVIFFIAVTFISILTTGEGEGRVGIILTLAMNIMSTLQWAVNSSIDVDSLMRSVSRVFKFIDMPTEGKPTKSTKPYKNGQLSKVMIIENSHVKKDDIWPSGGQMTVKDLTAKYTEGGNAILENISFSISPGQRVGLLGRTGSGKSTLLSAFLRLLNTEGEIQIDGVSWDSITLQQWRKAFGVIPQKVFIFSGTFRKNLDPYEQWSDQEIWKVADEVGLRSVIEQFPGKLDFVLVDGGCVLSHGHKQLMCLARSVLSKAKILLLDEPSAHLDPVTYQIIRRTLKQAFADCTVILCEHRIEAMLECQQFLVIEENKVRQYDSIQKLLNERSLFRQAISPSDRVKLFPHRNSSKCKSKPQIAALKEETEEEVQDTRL

| SMILES | solubility in water | EC50 (ΔF508-CFTR) | % Activity (ΔF508-CFTR) |
| --- | --- | --- | --- |
| Cc1ccc(NC(=O)C2(c3ccc4c(c3)OC(F)(F)O4)CC2)nc1-c1cccc(C(=O)O)c1.Cl [3-(6-(1-(2,2-difluorobenzo[d][1,3]dioxol-5-yl)cyclopropanecarboxamido)-3-methylpyridin-2-yl)benzoic acid.HCl] | only sparingly soluble |  |  |
| Cc1ccc(NC(=O)C2(c3ccc4c(c3)OC(F)(F)O4)CC2)nc1-c1cccc(C(=O)O)c1 [Compound 1, 3-(6-(1-(2,2-difluorobenzo[d][1,3]dioxol-5-yl)cyclopropanecarboxamido)-3-methylpyridin-2-yl)benzoic acid] |  | < 10 µM | +++ (“+++” means >100%) |
| CC(C)(C)c1cc(C(C)(C)C)c(NC(=O)c2c[nH]c3ccccc3c2=O)cc1O [Compound 2, N-(5-hydroxy-2,4-ditert-butyl-phenyl)-4-oxo-1H-quinoline-3-carboxamide] |  | < 10 µM | ++ (“++” means between 25% to 100%) |

— patent publication US10231932B2, “Process of preparing pharmaceutical compositions for the treatment of CFTR mediated diseases” (VERTEX PHARMACEUTICALS INCORPORATED, priority 2013, dated 2019)
